Assay results published in the supplement of paper PMC10307832.

Legend:
Assay in all cases: relative viability (nuclei count vs DMSO), 5 days (fraction); higher = more cells survive
Avagacestat + Vorinostat = compound: NC(=O)[C@@H](CCC(F)(F)F)N(Cc1ccc(-c2ncon2)cc1F)S(=O)(=O)c1ccc(Cl)cc1 [Avagacestat] + O=C(CCCCCCC(=O)Nc1ccccc1)NO [Vorinostat] (partner 1 µM)
Outline: (§1)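 Lung cancer cell lines, seeded in 1536-well plates, were treated the following day by pin tool with a single drug or with five library-drug doses (not always all listed) in √10 steps on top of a fixed anchor-drug dose. Cells were fixed and nuclei stained in one step after 5 days, and nuclei were counted. Relative viability is the nuclei count for treated wells divided by that for vehicle wells, reported as medians of duplicate plates.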

Avagacestat + Alpelisib = compound: NC(=O)[C@@H](CCC(F)(F)F)N(Cc1ccc(-c2ncon2)cc1F)S(=O)(=O)c1ccc(Cl)cc1 [Avagacestat] + Cc1nc(NC(=O)N2CCC[C@H]2C(N)=O)sc1-c1ccnc(C(C)(C)C(F)(F)F)c1 [Alpelisib] (partner 2 µM)
Outline: as §1

Avagacestat + Navitoclax = compound: NC(=O)[C@@H](CCC(F)(F)F)N(Cc1ccc(-c2ncon2)cc1F)S(=O)(=O)c1ccc(Cl)cc1 [Avagacestat] + CC1(C)CCC(c2ccc(Cl)cc2)=C(CN2CCN(c3ccc(C(=O)NS(=O)(=O)c4ccc(N[C@H](CCN5CCOCC5)CSc5ccccc5)c(S(=O)(=O)C(F)(F)F)c4)cc3)CC2)C1 [Navitoclax] (partner 0.5 µM)
Outline: as §1

Avagacestat + Linsitinib = compound: NC(=O)[C@@H](CCC(F)(F)F)N(Cc1ccc(-c2ncon2)cc1F)S(=O)(=O)c1ccc(Cl)cc1 [Avagacestat] + C[C@]1(O)C[C@@H](c2nc(-c3ccc4ccc(-c5ccccc5)nc4c3)c3c(N)nccn32)C1 [Linsitinib] (partner 1 µM)
Outline: as §1

Row | Cell Line | relative viability (Avagacestat + Vorinostat; first compound 0.08 µM) | relative viability (Avagacestat + Vorinostat; first compound 0.253 µM) | relative viability (Avagacestat + Vorinostat; first compound 0.8 µM) | relative viability (Avagacestat + Vorinostat; first compound 2.53 µM) | relative viability (Avagacestat + Vorinostat; first compound 8 µM) | relative viability (Avagacestat + Alpelisib; first compound 0.08 µM) | relative viability (Avagacestat + Alpelisib; first compound 0.253 µM) | relative viability (Avagacestat + Alpelisib; first compound 0.8 µM) | relative viability (Avagacestat + Alpelisib; first compound 2.53 µM) | relative viability (Avagacestat + Alpelisib; first compound 8 µM) | relative viability (Avagacestat + Navitoclax; first compound 0.08 µM) | relative viability (Avagacestat + Navitoclax; first compound 0.253 µM) | relative viability (Avagacestat + Navitoclax; first compound 0.8 µM) | relative viability (Avagacestat + Navitoclax; first compound 2.53 µM) | relative viability (Avagacestat + Navitoclax; first compound 8 µM) | relative viability (Avagacestat + Linsitinib; first compound 0.08 µM) | relative viability (Avagacestat + Linsitinib; first compound 0.253 µM) | relative viability (Avagacestat + Linsitinib; first compound 0.8 µM) | relative viability (Avagacestat + Linsitinib; first compound 2.53 µM) | relative viability (Avagacestat + Linsitinib; first compound 8 µM)
1 | NCI-H2405 | 1.04 | 1.1 | 1.12 | 0.943 | 0.933 | 0.717 | 0.742 | 0.735 | 0.583 | 0.625 | 0.864 | 0.937 | 0.779 | 0.638 | 0.797 | 0.873 | 0.852 | 1 | 0.627 | 0.737
2 | PC-3 [JPC-3] | 0.944 | 0.87 | 1.33 | 0.857 | 0.949 | 1.04 | 1.18 | 1.12 | 1.12 | 1.03 | 0.908 | 0.885 | 0.864 | 0.821 | 0.761 | 1.01 | 1.02 | 0.976 | 1.04 | 0.967
3 | NCI-H2085 | 0.815 | 0.855 | 0.807 | 0.758 | 0.882 | 1.15 | 1.07 | 1.08 | 1 | 1.05 | 1.21 | 1.37 | 1.13 | 1.26 | 1.08 | 0.913 | 0.967 | 1.08 | 0.922 | 0.84
4 | 201T | 1.01 | 1.03 | 0.925 | 0.857 | 0.86 | 1.04 | 1.02 | 1.04 | 0.892 | 0.887 | 1.19 | 1.21 | 1.25 | 1.19 | 1.18 | 1.02 | 1.07 | 1.13 | 0.985 | 0.99
5 | NCI-H1975 | 0.823 | 0.866 | 0.765 | 0.694 | 0.628 | 0.686 | 0.62 | 0.719 | 0.585 | 0.665 | 1.26 | 1.28 | 1.25 | 1.07 | 1.02 | 1.14 | 1.19 | 1.04 | 0.943 | 0.994
6 | NCI-H2023 | 0.625 | 0.554 | 0.617 | 0.471 | 0.6 | 0.659 | 0.781 | 0.536 | 0.562 | 0.536 | 1.14 | 1.28 | 1.12 | 0.834 | 0.894 | 0.789 | 0.784 | 0.628 | 0.606 | 0.47
7 | BEN | 0.589 | 0.653 | 0.579 | 0.526 | 0.588 | 1.13 | 1.01 | 0.944 | 0.774 | 1.07 | 0.0581 | 0.0757 | 0.141 | 0.061 | 0.0756 | 0.898 | 1.07 | 1.02 | 0.76 | 0.847
8 | RERF-LC-KJ | 0.724 | 0.64 | 0.801 | 0.685 | 0.601 | 0.813 | 0.823 | 0.831 | 0.831 | 0.703 | 1.11 | 0.878 | 0.874 | 0.982 | 1.1 | 0.896 | 0.981 | 0.92 | 0.848 | 0.761
9 | SK-MES-1 | 1.12 | 1.35 | 1.29 | 1.06 | 1.02 | 0.992 | 0.948 | 0.741 | 0.892 | 0.457 | 1.32 | 1.29 | 1.27 | 1.2 | 1.27 | 1.07 | 1.15 | 1.11 | 1.06 | 0.958
10 | PC-14 | 0.774 | 0.725 | 0.808 | 0.589 | 0.619 | 0.9 | 1.05 | 0.975 | 1.06 | 0.587 | 1.19 | 1.19 | 1.12 | 0.97 | 0.899 | 1.11 | 1.07 | 1.09 | 1 | 0.855
11 | NCI-H1437 | 1.03 | 1.12 | 1.11 | 0.893 | 0.728 | 1.22 | 1.25 | 0.921 | 0.894 | 0.849 | 1.39 | 1.22 | 1.1 | 1.04 | 0.979 | 1.65 | 1.14 | 1.19 | 0.955 | 0.721
12 | NCI-H1993 | 0.797 | 0.771 | 0.74 | 0.7 | 0.631 | 0.756 | 0.691 | 0.693 | 0.752 | 0.727 | 1.08 | 0.995 | 1.09 | 0.905 | 1.04 | 0.754 | 0.746 | 0.765 | 0.773 | 0.749
13 | LK-2 | 0.196 | 0.353 | 0.265 |  | 0.22 | 1.51 | 1.61 | 0.949 | 1.02 | 1 | 1.16 | 0.969 | 0.704 | 0.365 | 0.797 | 0.966 | 0.49 | 0.386 |  | 0.505
14 | NCI-H838 | 0.737 | 0.769 | 0.788 | 0.672 | 0.705 | 1.19 | 1.18 | 1.06 | 0.906 | 0.814 | 1.55 | 1.52 | 1.31 | 1.06 | 1.13 | 1.25 | 1.26 | 1.09 | 0.89 | 0.918
15 | HCC-44 | 1.09 | 1.14 | 1.19 | 1.07 | 1.21 | 0.939 | 0.746 | 0.8 | 0.667 | 0.645 | 1.14 | 1.13 | 0.948 | 0.76 | 0.874 | 0.703 | 0.709 | 0.681 | 0.504 | 0.598
16 | IA-LM | 1.56 | 1.59 | 1.51 | 0.957 | 0.992 | 1.09 | 1.62 | 1.74 | 1.43 | 1.16 | 1.25 | 1.3 | 1.34 | 1.21 | 1.18 | 1.24 | 0.859 | 1.11 | 1.01 | 0.984
